Measurements published in US20230119239A1, “OROMUCOSAL FILM COMPOSITIONS” (ReForm Therapeutics Ltd., priority 2021, published 2023).

Assay: Ex vivo permeation of liraglutide solution through porcine sublingual mucosa, Franz diffusion cell
Assay type: in vitro ADME
Conditions: liraglutide 3 mg/mL + Transcutol® HP (10% solution) compared with liraglutide solution alone; 120 minutes; receptor phosphate buffer pH 8.5; FIG. 4
Protocol: The solution of liraglutide, and solution of liraglutide and permeation enhancer was tested. […] Samples were taken at 0 and 120 minutes to determinate the presence of liraglutide in the receptor chamber. The concentration level of liraglutide was determined using HPLC/MS method.

permeation of liraglutide through sublingual mucosa ex vivo (in words): significantly increased permeation
Structure (SMILES): CCCCCCCCCCCCCCCC(=O)N[C@@H](CCC(=O)NCCCC[C@H](NC(=O)[C@H](C)NC(=O)[C@H](C)NC(=O)[C@H](CCC(N)=O)NC(=O)CNC(=O)[C@H](CCC(=O)O)NC(=O)[C@H](CC(C)C)NC(=O)[C@H](Cc1ccc(O)cc1)NC(=O)[C@H](CO)NC(=O)[C@H](CO)NC(=O)[C@@H](NC(=O)[C@H](CC(=O)O)NC(=O)[C@H](CO)NC(=O)[C@@H](NC(=O)[C@H](Cc1ccccc1)NC(=O)[C@@H](NC(=O)CNC(=O)[C@H](CCC(=O)O)NC(=O)[C@H](C)NC(=O)[C@@H](N)Cc1cnc[nH]1)[C@@H](C)O)[C@@H](C)O)C(C)C)C(=O)N[C@@H](CCC(=O)O)C(=O)N[C@@H](Cc1ccccc1)C(=O)N[C@H](C(=O)N[C@@H](C)C(=O)N[C@@H](Cc1c[nH]c2ccccc12)C(=O)N[C@@H](CC(C)C)C(=O)N[C@H](C(=O)N[C@@H](CCCNC(=N)N)C(=O)NCC(=O)N[C@@H](CCCNC(=N)N)C(=O)NCC(=O)O)C(C)C)[C@@H](C)CC)C(=O)O [liraglutide]
